Experiments:
[1] = tested on: LLC tumors; conditions: LLC tumors in C57Bl/6 mice, versus placebo (Friberg et al); cited from earlier work
[2] = tested on: P815 tumor; conditions: pre-immunized immune-competent mice, P815 (Uyttenhove et al); cited from earlier work
[3] = target: T1, Human idoleamine 2,3-dioxygenase (IDO) (Homo sapiens, UniProt P14902); assay: Human indoleamine 2,3-dioxygenase (IDO) enzyme assay; assay type: biochemical; conditions: 95 nM IDO, 2 mM D-Trp, pH 6.5, room temperature, absorbance at 321 nm
T1 construct: His tag (N); made in house; host or cells: E. coli
Description: Human idoleamine 2,3-dioxygenase (IDO) with an N-terminal His tag was expressed in E. coli and purified to homogeneity. IDO catalyzes the oxidative cleavage of the pyrrole ring of the indole nucleus of tryptophan to yield N′-formylkynurenine. The assays were performed at room temperature as described in the literature using 95 nM IDO and 2 mM D-Trp in the presence of 20 mM ascorbate, 5 μM methylene blue and 0.2 mg/mL catalase in 50 mM potassium phosphate buffer (pH 6.5). The initial reaction rates were recorded by continuously following the absorbance increase at 321 nm due to the formation of N′-formylkynurenine. […] The symbol “+” indicates IC50<1000 […].

T1 sequence (P14902 whole entry): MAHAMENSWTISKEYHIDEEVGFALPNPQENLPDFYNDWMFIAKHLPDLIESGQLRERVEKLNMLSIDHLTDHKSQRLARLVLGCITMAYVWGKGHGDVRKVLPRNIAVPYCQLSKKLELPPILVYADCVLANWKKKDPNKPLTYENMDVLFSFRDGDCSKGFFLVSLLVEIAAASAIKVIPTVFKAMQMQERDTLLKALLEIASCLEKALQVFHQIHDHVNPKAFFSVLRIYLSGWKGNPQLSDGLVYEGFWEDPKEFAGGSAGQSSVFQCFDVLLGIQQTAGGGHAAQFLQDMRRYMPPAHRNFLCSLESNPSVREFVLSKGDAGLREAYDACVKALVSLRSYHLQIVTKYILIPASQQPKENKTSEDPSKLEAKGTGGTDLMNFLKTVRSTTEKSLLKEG

Row | Structure (SMILES) | formation of tumors [1] | growth of tumors [2] | IC50 [3] [µM]
1 | Cn1cc(C[C@H](N)C(=O)O)c2ccccc21 [Example 1-MT, 1-methyl-tryptophan] | markedly delayed | inhibited | –
2 | ON=C(Nc1ccc(F)c(Cl)c1)c1cc(OCCCN2CCCC2)no1 [Example 2, N-(3-Chloro-4-fluorophenyl)-N′-hydroxy-3-(3-pyrrolidin-1-ylpropoxy)isoxazole-5-carboximidamide] | – | – | > 10
3 | ON=C(Nc1ccc(F)c(Cl)c1)c1cc(N2CCOCC2)no1 [Example 3, N-(3-Chloro-4-fluorophenyl)-N′-hydroxy-3-morpholin-ylisoxazole-5-carboximidamide] | – | – | > 10
4 | CC(=O)Nc1cc(C(=NO)NCc2cc(Cl)ccc2C)on1 [Example 22, N-[5-[(5-chloro-2-methylbenzyl)amino](hydroxyimino)methyl]isoxazol-3-ylacetamide] | – | – | > 10

Reference: US8507541B2, “N-hydroxyamidinoheterocycles as modulators of indoleamine 2,3-dioxygenase” (Incyte Corporation, priority 2006, dated 2013)
